Here are results for one substance from patent US20130189186A1, “APOPTOSIS IMAGING AGENTS BASED ON LANTIBIOTIC PEPTIDES” (GE HEALTHCARE LIMITED, priority 2010, published 2013).

In this assay the test system is phosphatidyl ethanolamine. The assay can be described thus: Biacore affinity for phosphatidyl ethanolamine (POPE/POPC liposomes captured on L1 chip). It counts as binding. Conditions: Biacore 3000, L1 chip, POPE/POPC liposomes (20% PE). From the text:
A Biacore 3000 (GE Healthcare, Uppsala) was equipped with an L1 chip. Liposomes made of POPE/POPC (20% PE) were applied for the affinity study using the capture technique recommended by the manufacturer. Each run consisted of activation of the chip surface, immobilization of liposomes, binding of peptide and wash off of both liposomes and peptide (regeneration). Similar applications can be found in Frostell-Karlsson et al [Pharm. Sciences, V.94 (1), (2005)]. Thorough washing of needle, tubing and liquid handling system with running buffer was performed after each cycle.
BIACORE software: The BIACORE control software including all method instructions was applied. A method with commands was also written in the BIACORE Method Definition Language (MDL) to have full control over pre-programmed instructions. BIACORE evaluation software was applied for analysing the sensorgrams.

With Duramycin, the “ka” value was roughly 20000 M⁻¹ s⁻¹.
